Key:
[1] = Crude oil clearing/displacement activity; settings: 20 μL of 1 mg/mL solution
[2] = Crude oil emulsification activity (turbidity at 610 nm); settings: emulsifier 1 mg/mL
Procedure: Emulsification activity was assessed using Louisiana Crude, Arabian Light Crude, and Prudhoe Bay Crude as the oil phase. A 2 mL solution with emulsifier concentration of 1 mg/mL was prepared. A crude oil (10 mg) was added to the emulsifier aqueous solution, the mixture was vortexed for one minute and the emulsified mixture was allowed to stand for 20 minutes. Emulsification activity was determined by measuring turbidity of the emulsion mixture in a spectrophotometer at 610 nm. The results obtained using SL-ethyl ester, SL-butyl ester, the natural sophorolipid mixture and Triton X-100 as emulsifiers are expressed as D610 and are listed in Table 8. […] Furthermore, a remarkable improvement in emulsification activity was obtained for SL-butyl ester relative to the natural sophorolipid mixture. These comparative results for emulsification of Louisiana Crude, Arabian Light Crude, and Prudhoe Bay Crude oil phase could not be anticipated by one skilled in the art.

[3] = Lemon oil solubilization, sonication, droplet size by dynamic light scattering; type: physicochemical
Procedure: MSL's used in this example are SL-hexyl ester (16), SL-octyl ester SL (17), and SL-dodecyl ester (18). To test the MSL capacity for lemon oil solubilization, the volume ratio of water to lemon oil, the concentration of surfactant, and the homogenization time (using a sonicator as the means of homogenization) were varied. Concentration of surfactant is calculated on a w/w basis relative to the mass of water being used. To form emulsions, the MSL or other surfactant is first dissolved in the water, oil is added to the solution, and finally the contents of the water/surfactant+oil system is sonicated. Subsequently, the emulsion is allowed to settle for 24 hours at 25° C. before measurements or visual observations are made.
To evaluate the stability of lemon oil solubilization, photographs of emulsions were recorded daily (after the initial 24 hours). Visual observations consisted of assessing solution clarity, extent of creaming and whether oil separation occurs. After selected time periods measurement of emulsion droplet size was performed by dynamic light scattering, which gives an average droplet size in the solution. […] If the emulsion had creamed (separated into two discreet emulsion layers) the average droplet size for each emulsion layer was determined. The results of this study are listed in Table 6, where the first number represents average droplet size in the top emulsion layer and the second represents the average droplet size in the bottom emulsion layer. […] A better performing emulsifier for this study is defined as functioning to form emulsions with smaller average particle size after the aging period.

[4] = MSL combination lemon oil emulsions, high shear homogenizer; type: physicochemical; settings: 5 weight % surfactant, 1 weight % lemon oil, one week at 25° C.
Procedure: In addition to testing single MSL emulsification through tracking nanoemulsion stability, MSL combinations were investigated. These emulsions were processed with a high shear homogenizer at 13,500 rpm. One example of this MSL combination formulation included 5 weight % surfactant, 1 weight % lemon oil, and 94% deionized water. The pure form of this formulation included 5 weight % SL-hexyl ester. The combination form of this formulation included 2.5 weight % SL-hexyl ester and 2.5 weight % SL-ethyl ester. […] The size of droplets within this emulsion was 2.5 μm. […] The size of droplets within the combination emulsion was 8.4 nm.

[5] = lemon oil/water 1/99, sonication 120 sec, 0.5 wt %, 1 Month
[6] = lemon oil/water 5/95, sonication 60 sec, 0.25 weight-%, 1 Month
[7] = lemon oil/water 5/95, sonication 60 sec, 1 weight-%, 1 Month
[8] = lemon oil/water 5/95, sonication 60 sec, 1 weight-%, 1 Week
[9] = lemon oil/water 5/95, sonication 120 sec, 0.25 weight-%, 1 Month
[10] = lemon oil/water 5/95, sonication 120 sec, 0.5 weight-%, 1 Month
[11] = lemon oil/water 5/95, sonication 120 sec, 0.5 weight-%, 1 Week
[12] = lemon oil/water 5/95, sonication 120 sec, 1 weight-%, 1 Month
[13] = lemon oil/water 5/95, sonication 120 sec, 1 weight-%, 1 Week

With `CCCCOC(=O)CCCCCCCC=CCCCCCCC(C)OC1OC(CO)C(O)C(O)C1OC1OC(CO)C(O)C(O)C1O` (centres unmarked) [Compound 8, SL-Butyl Ester] the “Oil displacement activity (diameter of the clearing zone)” value (“Oil displacement activity” below) ([1]; Arabian Light Crude on sea water) was 6.7 ± 0.14 cm, the “Oil displacement activity” value ([1]; Louisiana Crude on sea water) was 8.7 ± 0.35 cm and the “Oil displacement activity” value ([1]; Prudhoe Bay Crude on sea water) was 7.5 cm. For the same compound, the “Emulsification activity (D610)” value ([2]; Arabian Crude) was 1.77, the “Emulsification activity (D610)” value ([2]; Louisiana Crude) was 1.50 and the “Emulsification activity (D610)” value ([2]; Prudhoe Crude) was 1.58.

In the case of `CCCCCCOC(=O)CCCCCCCC=CCCCCCCC(C)OC1OC(CO)C(O)C(O)C1OC1OC(CO)C(O)C(O)C1O` (centres unmarked) [Compound 16, SL-Hexyl Ester], the “average droplet sizes after one month” value ([3]; lemon oil emulsions, after one month) is reported as “below 1 μm”, the “Emulsion Droplet Size” value ([3]; lemon oil/water 1/99, sonication 60 sec, 0.25 weight-%, 1 Month) is reported as 138 nm and the “Emulsion Droplet Size” value ([3]; lemon oil/water 1/99, sonication 60 sec, 0.25 weight-%, 1 Week) is reported as 200 nm. The “Emulsion Droplet Size” value ([3]; lemon oil/water 1/99, sonication 60 sec, 1 weight-%, 1 Month) was 52 nm, the “Emulsion Droplet Size” value ([3]; lemon oil/water 1/99, sonication 60 sec, 1 weight-%, 1 Week) was 22 nm and the “Emulsion Droplet Size” value ([3]; lemon oil/water 1/99, sonication 120 sec, 0.25 weight-%, 1 Month) was 105 nm. For the same compound, the “Emulsion Droplet Size” value ([3]; lemon oil/water 1/99, sonication 120 sec, 0.25 weight-%, 1 week) was 149 nm, the “Emulsion Droplet Size, bottom emulsion layer” value [3, 5] was 82 nm and the “Emulsion Droplet Size, top emulsion layer” value [3, 5] was 287 nm. The “Emulsion Droplet Size” value ([3]; lemon oil/water 1/99, sonication 120 sec, 0.5 wt %, 1 Week) was 255 nm, the “Emulsion Droplet Size” value ([3]; lemon oil/water 1/99, sonication 120 sec, 1 weight-%, 1 Month) was 26 nm and the “Emulsion Droplet Size” value ([3]; lemon oil/water 1/99, sonication 120 sec, 1 weight-%, 1 Week) was 20 nm. The “Emulsion Droplet Size, bottom emulsion layer” value [3, 6] was 177 nm, the “Emulsion Droplet Size, top emulsion layer” value [3, 6] was 506 nm and the “Emulsion Droplet Size” value ([3]; lemon oil/water 5/95, sonication 60 sec, 0.25 weight-%, 1 week) was 330 nm. The “Emulsion Droplet Size, bottom emulsion layer” value [3, 7] was 32 nm, the “Emulsion Droplet Size, top emulsion layer” value [3, 7] was 471 nm and the “Emulsion Droplet Size, bottom emulsion layer” value [3, 8] was 112 nm. For the same compound, the “Emulsion Droplet Size, top emulsion layer” value [3, 8] was 313 nm, the “Emulsion Droplet Size, bottom emulsion layer” value [3, 9] was 166 nm and the “Emulsion Droplet Size, top emulsion layer” value [3, 9] was 450 nm. The “Emulsion Droplet Size” value ([3]; lemon oil/water 5/95, sonication 120 sec, 0.25 weight-%, 1 week) was 325 nm, the “Emulsion Droplet Size, bottom emulsion layer” value [3, 10] was 120 nm and the “Emulsion Droplet Size, top emulsion layer” value [3, 10] was 505 nm. The “Emulsion Droplet Size, bottom emulsion layer” value [3, 11] was 29 nm, the “Emulsion Droplet Size, top emulsion layer” value [3, 11] was 320 nm and the “Emulsion Droplet Size, bottom emulsion layer” value [3, 12] was 25 nm. The “Emulsion Droplet Size, top emulsion layer” value [3, 12] was 518 nm, the “Emulsion Droplet Size, bottom emulsion layer” value [3, 13] was 246 nm and the “Emulsion Droplet Size, top emulsion layer” value [3, 13] was 336 nm. The “size of droplets within the emulsion” value ([4]; 94% deionized water) was 2.5 μm and the “appearance of the emulsion” value [4] was “completely opaque”.

— patent publication US9650405B2, “Modified sophorolipids as oil solubilizing agents” (Polytechnic Institute of New York University, priority 2010, dated 2017)
